Experimental data from ChEMBL document CHEMBL1201862, “PubChem BioAssay data set” (2004).
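Five compound concentrations were applied to cells in 96-well plates for 48 hours; endpoints were derived by simple linear interpolation of the resulting dose-response curve. Abbreviation: GI50, concentration required for 50% inhibition of growth.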 Activity calls are given as the source filed them. No stated cut-off is given here; in the data, active = GI50 up to about 1.1 µM and inactive = higher.

Key:
Test in all cases: inhibition of tumour cell growth, NCI panel, 48 h
DMS-114 = test system: DMS-114
XF498 = test system: XF498
RXF 631 = test system: RXF 631
LXFL 529 = test system: LXFL 529
HOP-18 = test system: HOP-18
DMS-273 = test system: DMS-273
Hs-578T = test system: Hs-578T
MDA-MB-231 = test system: MDA-MB-231
BT-549 = test system: BT-549

Measured: GI50

CC1(C)CCc2cc3c(cc2O1)OCCC3=O
inactive: DMS-114 70 µM | XF498 > 100 µM | RXF 631 > 100 µM | LXFL 529 > 100 µM | HOP-18 > 100 µM

CCOC(=O)NN1C(=O)C(=P(c2ccccc2)(c2ccccc2)c2ccccc2)C(C(=O)OC)=C1C
inactive: DMS-114 > 100 µM | XF498 > 100 µM | DMS-273 > 100 µM | LXFL 529 > 100 µM | HOP-18 > 100 µM

CC1CC(=O)C2CC(CO)=CCCC2C1(C)CC/C(=C/CO)CO (configuration not stated)
inactive: DMS-114 > 100 µM | DMS-273 > 100 µM | LXFL 529 > 100 µM | HOP-18 > 100 µM

O=c1c2cc(Br)ccc2nc(CNc2ccccc2)n1-c1ccccc1
inactive: DMS-114 11.5 µM | XF498 15.7 µM | DMS-273 25.8 µM | LXFL 529 14.9 µM | HOP-18 36.7 µM

Cn1cc(-c2ccc3c4ccccc4n(C)c3c2)c2ccccc21
inactive: DMS-114 > 100 µM | LXFL 529 > 100 µM | HOP-18 > 100 µM

O=c1c2cccnc2ncn1CCN1CCCC1
inactive: DMS-114 > 100 µM | XF498 > 100 µM | DMS-273 > 100 µM | LXFL 529 > 100 µM

C1CCN2CC3CONC3C2C1 (configuration not stated)
inactive: DMS-114 > 100 µM | XF498 > 100 µM | DMS-273 > 100 µM | LXFL 529 > 100 µM

CCOC(=O)CSc1cc[nH]c(=O)n1
inactive: DMS-114 > 100 µM | XF498 75 µM | DMS-273 > 100 µM | LXFL 529 > 100 µM

COC(=O)N(C(=O)OC)C(C(=O)O)C(C)C (configuration not stated)
inactive: DMS-114 > 100 µM | DMS-273 > 100 µM | LXFL 529 > 100 µM | HOP-18 > 100 µM

CC1(O)C(C)(O)C(C)(O)C1(C)O (configuration not stated)
inactive: DMS-114 > 100 µM | XF498 > 100 µM | DMS-273 > 100 µM | LXFL 529 > 100 µM | HOP-18 > 100 µM

Cc1cccc(NC(=O)/C=C/c2ccc(N(CCC#N)CCC#N)cc2C)c1
inactive: DMS-114 49.9 µM | XF498 > 100 µM | DMS-273 > 100 µM | RXF 631 > 100 µM | LXFL 529 23.4 µM

CC(=O)OC1COC(n2c(=S)n(-c3ccccc3)c(=O)c3cc(Br)ccc32)C(OC(C)=O)C1OC(C)=O (configuration not stated)
inactive: DMS-114 51.6 µM | XF498 19.3 µM | DMS-273 45.8 µM | LXFL 529 27 µM | HOP-18 > 100 µM

CCOC(=O)N1CCc2cc(OC)c(OC)cc2/C1=C\c1ccc(OC)c(OC)c1
inactive: DMS-114 35.3 µM | XF498 > 10 µM | DMS-273 25.5 µM | LXFL 529 29.5 µM | HOP-18 29.5 µM

CCCCCCCCCCCc1noc2c1C(=O)C(O)CC2 (configuration not stated)
inactive: XF498 13.6 µM | DMS-273 16.8 µM | RXF 631 17.6 µM | LXFL 529 16.6 µM

COc1ccc(/C=N/C23CC4CC(CC(C4)C2)C3)cc1
inactive: DMS-114 > 100 µM | DMS-273 > 10 µM

NCc1cccc(O)c1O
inactive: DMS-114 > 100 µM | XF498 > 100 µM | DMS-273 > 100 µM | RXF 631 > 100 µM | LXFL 529 > 100 µM | HOP-18 > 100 µM

CCCCn1c(C)c(C(=O)CC)c(C(=O)NCCN2CCN(c3ccccc3Cl)CC2)c1C
inactive: Hs-578T 23.5 µM | MDA-MB-231 17.1 µM | BT-549 16 µM

NC(CCc1ncc(C(=O)O)s1)C(=O)O (configuration not stated)
inactive: DMS-114 > 100 µM | RXF 631 > 100 µM | LXFL 529 > 100 µM | HOP-18 > 100 µM

CN(C)C(=O)OC1=CC2CCC(C1)N2C (configuration not stated)
inactive: Hs-578T > 100 µM | MDA-MB-231 > 100 µM | BT-549 > 100 µM

NS(=O)(=O)c1cc(C(=O)O)c(Cl)c([N+](=O)[O-])c1Cl
inactive: Hs-578T > 100 µM | MDA-MB-231 > 100 µM | BT-549 > 100 µM

O=C1Nc2ccc(Br)cc2/C1=N/Nc1ccc([N+](=O)[O-])cc1[N+](=O)[O-]
inactive: LXFL 529 3.66 µM | HOP-18 1.12 µM

O=C(/C(=N/Nc1ccccc1)c1ccc([N+](=O)[O-])cc1)c1ccc([N+](=O)[O-])cc1
inactive: DMS-114 > 100 µM | XF498 > 100 µM | DMS-273 > 100 µM | LXFL 529 > 100 µM | HOP-18 > 100 µM

CS(=O)(=O)NNS(=O)(=O)c1cccc([N+](=O)[O-])c1
inactive: DMS-114 > 100 µM | XF498 > 100 µM | DMS-273 > 100 µM | RXF 631 > 100 µM | LXFL 529 > 100 µM

COc1ccc2c(C3(O)CCNCC3)c[nH]c2c1
inactive: DMS-273 > 100 µM | RXF 631 > 100 µM | LXFL 529 > 100 µM | HOP-18 > 100 µM

C=C1C[C@]23C[C@@]1(O)CC[C@H]2[C@@]12C=C[C@H](O)[C@@](C)(C(=O)O1)[C@H]2[C@@H]3C(=O)O [GIBBERELLIN A3]
inactive: DMS-114 > 100 µM | XF498 > 100 µM | DMS-273 > 100 µM

CC(C)C.C[N+](C)(C)C.OC(c1ccccc1)(C(F)(F)F)C(F)(F)F.OC(c1ccccc1)(C(F)(F)F)C(F)(F)F.[SiH3-]
inactive: DMS-114 7.16 µM | XF498 11.9 µM | DMS-273 10.2 µM | RXF 631 2.58 µM | LXFL 529 4.19 µM | HOP-18 4.16 µM

CCSc1c2cc(OC)ccc2nc2ccc(OC)cc12
inactive: Hs-578T > 100 µM | MDA-MB-231 8.57 µM | BT-549 23.7 µM

C#C[C@]1(O)CC[C@H]2[C@@H]3CCC4=C/C(=N\OCCN5CCCCC5)CC[C@]4(C)[C@H]3CC[C@@]21C
inactive: Hs-578T 3.53 µM | MDA-MB-231 13.9 µM | BT-549 5.89 µM

C/C(CC(=O)Nc1ccc(C)c(C)c1)=N\N(c1ccccc1)c1ccccc1
inactive: DMS-114 18.3 µM | XF498 > 100 µM | DMS-273 17.6 µM | LXFL 529 64.1 µM | HOP-18 > 100 µM

CCCCCCCCSC1=C(Cl)C(=O)C(OC)=C(OC)C1=O
inactive: Hs-578T 20.7 µM | MDA-MB-231 12.4 µM | BT-549 14 µM

C=CCOC1=C(OC(C)=O)C(C2COC(C)(C)O2)OC1=O (configuration not stated)
inactive: Hs-578T 33.4 µM | MDA-MB-231 17.1 µM | BT-549 27.4 µM

CCCCCC[C@H]1C(=O)O[C@H](C)[C@H](NC(=O)c2cccc(NC=O)c2OC)C(=O)O[C@@H](C)[C@@H]1OC(=O)C(C)CC.CCCCCC[C@H]1C(=O)O[C@H](C)[C@H](NC(=O)c2cccc(NC=O)c2OC)C(=O)O[C@@H](C)[C@@H]1OC(=O)CC(C)C (some centres not stated)
inactive: Hs-578T 12.1 µM | MDA-MB-231 15.8 µM | BT-549 27 µM

COc1ccc(C2NC(N)=C(C#N)C3=C2C(C)CCC3)cc1OC (configuration not stated)
inactive: Hs-578T 74.3 µM | MDA-MB-231 59.7 µM | BT-549 68.2 µM

NNC(=O)c1ccc(OCc2nc3ccccc3[nH]2)cc1
inactive: Hs-578T 28.1 µM | MDA-MB-231 > 100 µM | BT-549 52.2 µM

[N-]=[N+]=NC(c1cn(C2CC(O)C(CO)O2)c(=O)[nH]c1=O)C(Br)I (configuration not stated)
inactive: DMS-114 > 100 µM | DMS-273 > 100 µM | LXFL 529 > 100 µM

Cn1c(O)c(C2=Nc3ccccc3C2=O)c2ccccc21
inactive: Hs-578T > 100 µM | MDA-MB-231 > 100 µM | BT-549 > 100 µM

CCOC1=NC(C(F)(F)F)(C(F)(F)F)N=C(/N=C(/N)N(C)C(C(C)C)P(=O)(OC(C)C)OC(C)C)O1 (configuration not stated)
inactive: Hs-578T 61.4 µM | MDA-MB-231 > 100 µM | BT-549 40.6 µM

O=C(c1ccccc1)c1c(CC(O)c2ccccn2)n(C(=O)c2ccccc2)c2ccccc12 (configuration not stated)
inactive: DMS-114 22 µM | XF498 20.4 µM | DMS-273 23.6 µM | LXFL 529 28.5 µM

Cc1cc2nc3c(N)nn(CCN(C)C)c3nc2cc1C
inactive: Hs-578T 40.2 µM | MDA-MB-231 33.8 µM | BT-549 57.9 µM

CC(=O)O[C@H]1[C@@H](N2CCOCC2)C[C@H]2[C@@H]3CC=C4C[C@@H](N5CCCC5)CC[C@]4(C)[C@H]3CC[C@@]21C
inactive: Hs-578T > 100 µM | MDA-MB-231 > 100 µM | BT-549 > 100 µM

BrC1=CCC23CC=C(Br)[C@H]4CC2(COC3)C[C@@H]1O4 (some centres not stated)
inactive: DMS-114 28.4 µM | XF498 76.6 µM | DMS-273 36.7 µM | LXFL 529 40.3 µM

COc1ccccc1C(=O)Nc1ccc(Cl)c(C(=O)OC(C)C)c1
inactive: DMS-114 19 µM | XF498 21.9 µM | DMS-273 35.3 µM | Hs-578T > 100 µM | MDA-MB-231 > 100 µM | BT-549 64.9 µM | RXF 631 41.1 µM | HOP-18 > 100 µM

COC(=O)/C=C1\CCC(C)O1 (configuration not stated)
inactive: DMS-114 > 100 µM | XF498 > 100 µM | DMS-273 > 100 µM | RXF 631 > 100 µM | LXFL 529 > 100 µM

COC(=O)C[C@H](COCc1ccccc1)NC(=O)C[C@H](COCc1ccccc1)NC(=O)OC(C)(C)C
inactive: Hs-578T 26.4 µM | MDA-MB-231 36.6 µM | BT-549 20.7 µM

CC[S+]1C2=C(CC(C)(C)CC2=O)[N-]c2ccccc21 (configuration not stated)
inactive: Hs-578T 78.3 µM | MDA-MB-231 > 100 µM | BT-549 > 100 µM

Cc1c[n+]2c3ccccc3c3ccccc3c2s1.[O-][Cl+3]([O-])([O-])[O-]
inactive: DMS-114 2.61 µM | XF498 3.19 µM | DMS-273 5.3 µM | LXFL 529 3.16 µM | HOP-18 40.2 µM

CCCCNC(=O)Nc1c(C(N)=O)c2n(c1C(=O)OCC)CCCCC2
inactive: Hs-578T 64.9 µM | MDA-MB-231 21.3 µM | BT-549 > 100 µM

CCCCCCCCCCOC(=O)c1cc[n+](C)cc1
inactive: DMS-114 18 µM | XF498 17.5 µM | DMS-273 17.3 µM | LXFL 529 16.3 µM | HOP-18 42.7 µM

CCCCC#COS(=O)(=O)c1ccc(C)cc1
inactive: DMS-114 44.1 µM | LXFL 529 64 µM

O=C1NC(=O)C(C(CC(=O)c2ccc(Cl)cc2)c2ccc(Cl)cc2)C(=O)N1 (configuration not stated)
inactive: Hs-578T > 100 µM | MDA-MB-231 > 100 µM | BT-549 > 100 µM

CC(C)(C)OC(=O)NCC(=O)N(CCc1ccc(Cl)c(Cl)c1)CCN1CCCC1
inactive: Hs-578T 18.8 µM | MDA-MB-231 13.1 µM | BT-549 20 µM

COC(OC)c1cccc2c1C(=O)CCC1(O)c3ccccc3C1C2 (configuration not stated)
inactive: DMS-114 39.1 µM | XF498 > 100 µM | DMS-273 > 100 µM | LXFL 529 86.3 µM | HOP-18 91.6 µM
